Results as given in patent US6447997B1, “Gene coding for GADD153 as a clinical diagnostic and prognostic in cancer therapy” (Research Development Foundation, priority 1997, dated 2002).

Tested on: GADD153 mRNA
Assay: GADD153 mRNA level in 2008 ovarian carcinoma cells after paclitaxel
Format: cell-based
Details: concentration 10 times the IC50, 24 hours

SMILES: CC(=O)O[C@H]1C(=O)[C@@]2(C)[C@H]([C@H](OC(=O)c3ccccc3)[C@]3(O)C[C@H](OC(=O)[C@H](O)[C@@H](NC(=O)c4ccccc4)c4ccccc4)C(C)=C1C3(C)C)[C@]1(OC(C)=O)CO[C@@H]1C[C@@H]2O [paclitaxel]
- increase in GADD153 mRNA level: 5.7±2.5 fold
